Results from PMC5234776, “Study of the Antimicrobial Activity of Tilapia Piscidin 3 (TP3) and TP4 and Their Effects on Immune Functions in Hybrid Tilapia (Oreochromis spp.)” (PLoS ONE, 2017).
Values after ≈ are worked out from the molar mass of the structure shown. Like-named read-outs stand apart in the source and are kept apart here. Peptide text beside a SMILES is read from it.

How the values were obtained:
[1] = tested on: V. vulnificus; assay: microbe, parasite or virus in culture; format: cell-based, Vibrio vulnificus
Method: (§1) We determined the MICs of TP3, TP4, kanamycin, and ampicillin against V. vulnificus using a broth microdilution method in accordance with NCCLS guidelines. To measure the killing efficiencies of TP3 and TP4 against V. vulnificus, we prepared TP3 or TP4 solutions at MIC concentrations of 0.5×, 1×, and 2× and these solutions with equal volumes of V. vulnificus (1×10^6 CFU/ml) to each well of a 96-well plate. The plates were incubated at 28°C for 0, 60, 120, 180, 360, 540, 720, or 1440 minutes, and after the incubation period, 50 μL of each bacterial solution were plated on a TCBS plate to obtain viable cell counts. Broth grown in the absence of peptides was used as a negative control. The results were determined using triplicate independent experiments.
First, we determined the minimum MICs and minimum bactericidal concentrations (MBCs) of TP3 or TP4 against V. vulnificus.

[2] = tested on: V. vulnificus; assay: microbe, parasite or virus in culture; format: cell-based, Vibrio vulnificus; details: for antimicrobial activity in the pH 2 solution: pH 2, in words
Method: (§2) To understand the effects of pH on TP3 or TP4, the reagents were dissolved in ddH2O, 1 M HCl or 1 M NaOH to obtain solutions with different pH values. For the temperature-dependent functional study, the TP3 or TP4 was added to a solution in a water bath (Basic life, model BL3002, Taiwan) and incubated for 60 minutes at different temperatures (40, 60, 80, or 100°C). To evaluate the effects of TP3 and TP4 on pepsin and trypsin function, each peptide was incubated for 10 or 30 minutes with different concentrations of pepsin or trypsin (0.1, 1, or 10 μg/ml), and we determined the MIC values after incubating these solutions with cells at 28°C for 720 minutes, according to a previously described MIC experimental protocol.

[3] = tested on: V. vulnificus; assay: microbe, parasite or virus in culture; format: cell-based, Vibrio vulnificus; details: peptide treated from room temperature to as high as 100°C; 16 hours of incubation
Method: as §2, with “[…],” for “and we determined the MIC values after incubating these solutions with cells at 28°C for 720 minutes,”

[4] = tested on: V. vulnificus; assay: Time-kill analysis; format: cell-based, Vibrio vulnificus; details: for eradication of bacteria: 60 minutes of exposure at 2×MIC, in words; for time after which V. vulnificus CFUs recovered: peptide at 1xMIC
Method: as §1

[5] = tested on: V. vulnificus; assay: Tilapia survival, peptide injected after V. vulnificus infection (post-treatment); format: in vivo, tilapia (Oreochromis spp.); details: seven days
From the text: We obtained tilapia (Oreochromis spp.) from a commercial aquaculture company. The fish body lengths were 4.0±0.6 cm, and body weights were 3.1±0.3 g. The tilapia were maintained in a 2000 liter indoor aquarium at the Marine Research Station, Ilan, Taiwan. To study the efficacy with which TP3 and TP4 protect tilapia against V. vulnificus, we injected the bacteria into the abdominal cavities (peritoneum) of the tilapia using a syringe (29 Gx1/2, Terumo Medical, Elkton, MD, USA); control tilapia were injected with PBS-buffered saline. For the first trial in each group, we used 15 tilapia: (a) group 1 was injected with V. vulnificus (2×10^5 CFU/fish) only; (b) group 2 was injected with PBS only; and (c) group 3 was injected with bacterial cells (2×10^5 CFU/fish) combined with a mixture containing both TP3 and TP4 peptides (at 0.1, 1, 10, or 20 μg/fish) that had been incubated for 60 minutes at 28°C. Next, at 168 hours after the first injection, the tilapia that survived the first co-treatment were again injected with V. vulnificus (2×10^5 CFU/fish). For this second challenge, we chose tilapia with similar body weights and ages that had not been previously treated with V. vulnificus, TP3 or TP4 for the V. vulnificus-only group (control group), and we recorded the survival rate over seven days. For the third trial, each group contained 15 tilapia, each of which was injected with 20, 30, or 40 μg of TP3 or TP4 followed by V. vulnificus (2×10^5 CFU/fish) after 0.5, 1, or 2 hours. The survival rate was recorded after seven days. For the fourth trial, each group contained 15 tilapia, each of which was first injected with V. vulnificus (2×10^5 CFU/fish) and then with 20, 30, or 40 μg of TP3 or TP4 after 0.5, 1, or 2 hours; the survival rate was recorded over seven days. Each experimental group consisted of 15 fish per treatment and three replicates (triplicate groups of 15 fish per treatment). We performed multiple group comparisons by analysis of variance (ANOVA) using SPSS software, and pairwise comparisons of groups were performed using a t-test. Significant differences were indicated as *P<0.05 and **P<0.01.

[6] = tested on: V. vulnificus; assay: In vivo bactericidal activity, bacterial load in tilapia liver; set-up: species or system tilapia (Oreochromis spp.); details: for V. vulnificus bacterial load in the liver versus infected untreated fish: 20, 30 or 40 μg/fish, co-, pre- or post-treatment, in words; for bacterial clearance of V. vulnificus from the tilapia: after 48 hours
Method: Three groups of fish were used for these experiments. The first group was first injected with V. vulnificus (2×10^5 CFU/fish) followed by TP3 or TP4 peptides (20, 30, or 40 μg/fish) 0.5 hours later. A second group was first injected with TP3 or TP4 peptides (20, 30, or 40 μg/fish) and then, 0.5 hours later, with V. vulnificus (2×10^5 CFU/fish). A third group of tilapia was simultaneously injected (co-treated) with V. vulnificus (2×10^5 CFU/fish) and TP3 or TP4 peptides (20, 30, or 40 μg/fish). Liver samples were obtained from each group of tilapia at 3, 6, 9, 12, 24, and 48 hours after the final treatment and the tissues were homogenized in TSB medium before being spread onto TCBS plates. We incubated the plates at 28°C for 12 hours and then counted the number of bacterial colonies.

[7] = peptide 20 μg/fish 0.5 hours after V. vulnificus
[8] = peptide 20 μg/fish 1 hour after V. vulnificus
[9] = peptide 20 μg/fish 2 hours after V. vulnificus
[10] = peptide 30 μg/fish 0.5 hours after V. vulnificus
[11] = peptide 30 μg/fish 1 hour after V. vulnificus
[12] = peptide 30 μg/fish 2 hours after V. vulnificus
[13] = peptide 40 μg/fish 0.5 hours after V. vulnificus
[14] = peptide 40 μg/fish 1 hour after V. vulnificus
[15] = peptide 40 μg/fish 2 hours after V. vulnificus

Row | Compound | MBC [1] | antimicrobial activity in the pH 2 solution [2] | MBC ([2]; pH 7) | concentration sufficient to eliminate V. vulnificus [3] | eradication of bacteria [4] | time after which V. vulnificus CFUs recovered [4] | survival rate [5, 7] | survival rate [5, 8] | survival rate [5, 9] | survival rate [5, 10] | survival rate [5, 11] | survival rate [5, 12] | survival rate [5, 13] | survival rate [5, 14] | survival rate [5, 15] | V. vulnificus bacterial load in the liver versus infected untreated fish [6] | bacterial clearance of V. vulnificus from the tilapia [6] | MIC ([2]; pH 7)
1 | CC[C@H](C)[C@H](NC(=O)[C@H](CC(C)C)NC(=O)[C@H](CO)NC(=O)[C@H](Cc1c[nH]cn1)NC(=O)[C@@H](NC(=O)[C@H](Cc1c[nH]cn1)NC(=O)[C@H](CCCCN)NC(=O)CNC(=O)[C@@H](NC(=O)[C@H](CO)NC(=O)[C@H](Cc1ccccc1)NC(=O)[C@H](CC(C)C)NC(=O)CNC(=O)CNC(=O)[C@@H](NC(=O)[C@@H](NC(=O)[C@H](Cc1c[nH]cn1)NC(=O)[C@H](Cc1c[nH]cn1)NC(=O)[C@@H](NC(=O)[C@@H](N)Cc1ccccc1)[C@@H](C)CC)[C@@H](C)CC)[C@@H](C)CC)C(C)C)[C@@H](C)CC)C(=O)N[C@@H](Cc1c[nH]cn1)C(=O)NCC(=O)N[C@@H](Cc1c[nH]cn1)C(=O)O [TP3, tilapia piscidin 3] (H-FIHHIIGGLFSVGKHIHSLIHGH-OH) | 62.5 µg/mL (≈ 24.4 µM) | Neither the antibiotics nor TP3 and TP4 showed any antimicrobial activity | 62.5 µg/mL (≈ 24.4 µM) | 250 µg/mL | completely eradicated | approximately 6 hours | 33.3% | 20% | 0% | 33.3% | 15.5% | 4.5% | 24.4% | 8.9% | 0% | significantly lower | 100% | 
2 | CC[C@H](C)[C@H](NC(=O)[C@H](C)NC(=O)[C@H](CCCCN)NC(=O)CNC(=O)[C@H](C)NC(=O)[C@H](CO)NC(=O)[C@H](Cc1ccccc1)NC(=O)[C@H](CC(C)C)NC(=O)CNC(=O)CNC(=O)[C@@H](NC(=O)[C@@H](NC(=O)[C@H](Cc1c[nH]cn1)NC(=O)[C@H](Cc1c[nH]cn1)NC(=O)[C@@H](NC(=O)[C@@H](N)Cc1ccccc1)[C@@H](C)CC)[C@@H](C)CC)[C@@H](C)CC)C(=O)N[C@@H](Cc1c[nH]cn1)C(=O)N[C@@H](CCCNC(=N)N)C(=O)N[C@@H](CC(C)C)C(=O)N[C@H](C(=O)N[C@@H](CCCNC(=N)N)C(=O)N[C@@H](CCCNC(=N)N)C(=O)N[C@@H](CCCNC(=N)N)C(=O)N[C@@H](CCCNC(=N)N)C(=O)N[C@@H](CCCNC(=N)N)C(=O)O)[C@@H](C)CC [TP4, tilapia piscidin 4] (H-FIHHIIGGLFSAGKAIHRLIRRRRR-OH) | 7.8 µg/mL (≈ 2.62 µM) | Neither the antibiotics nor TP3 and TP4 showed any antimicrobial activity | 7.8 µg/mL (≈ 2.62 µM) | 31.2 µg/mL | completely eradicated | ~9 h | 48.9% | 22.2% | 4% | 40% | 20% | 0% | 2.2% | 4.4% | 6.7% | significantly reduced | 100% | 7.8 µg/mL (≈ 2.62 µM)
